Assays:
[1] = Binding affinity to amyloid beta (1-42) aggregates
Brain [2] = assay: Ratio of drug uptake in BALB/c mouse brain after 5 mins to 30 mins; assay type: ADME, tissue-based; settings: in vivo
[3] = Displacement of [125I]TZDM from amyloid beta (1 to 42) aggregates after 3 hrs by gamma counting
Liver [4] = assay: Drug uptake in ICR mouse liver at 1.11 MBq, iv after 60 mins postinjection; assay type: ADME, organism-based; settings: in vivo, 1 h
Lung [5] = assay: Drug uptake in ICR mouse lung at 1.11 MBq, iv after 60 mins postinjection; assay type: ADME, organism-based; settings: in vivo, 1 h
Liver [6] = assay: Drug uptake in ICR mouse liver at 1.11 MBq, iv after 120 mins postinjection; assay type: ADME, organism-based; settings: in vivo, 2 h
Heart [7] = assay: Drug uptake in ICR mouse heart at 1.11 MBq, iv after 60 mins postinjection; assay type: ADME, organism-based; settings: in vivo, 1 h
Femur [8] = assay: Drug uptake in ICR mouse femur at 1.11 MBq, iv after 120 mins postinjection; assay type: ADME, organism-based; settings: in vivo, 2 h
Femur [9] = assay: Drug uptake in ICR mouse femur at 1.11 MBq, iv after 60 mins postinjection; assay type: ADME, organism-based; settings: in vivo, 1 h
Brain [10] = assay: Drug uptake in ICR mouse brain at 1.11 MBq, iv after 120 mins postinjection; assay type: ADME, organism-based; settings: in vivo, 2 h
Liver [11] = assay: Drug uptake in ICR mouse liver at 1.11 MBq, iv after 30 mins postinjection; assay type: ADME, organism-based; settings: in vivo, 0.5 h
Lung [12] = assay: Drug uptake in ICR mouse lung at 1.11 MBq, iv after 30 mins postinjection; assay type: ADME, organism-based; settings: in vivo, 0.5 h
Kidney [13] = assay: Drug uptake in ICR mouse kidney at 1.11 MBq, iv after 30 mins postinjection; assay type: ADME, organism-based; settings: in vivo, 0.5 h
Spleen [14] = assay: Drug uptake in ICR mouse spleen at 1.11 MBq, iv after 2 mins postinjection; assay type: ADME, organism-based; settings: in vivo
Blood [15] = assay: Drug uptake in ICR mouse blood at 1.11 MBq, iv after 60 mins postinjection; assay type: ADME, organism-based; settings: in vivo, 1 h
[16] = Octanol-water partition coefficient, log P of the compound; assay type: physicochemical
Blood [17] = assay: Drug uptake in ICR mouse blood at 1.11 MBq, iv after 2 mins postinjection; assay type: ADME, organism-based; settings: in vivo
Heart [18] = assay: Drug uptake in ICR mouse heart at 1.11 MBq, iv after 120 mins postinjection; assay type: ADME, organism-based; settings: in vivo, 2 h
Spleen [19] = assay: Drug uptake in ICR mouse spleen at 1.11 MBq, iv after 120 mins postinjection; assay type: ADME, organism-based; settings: in vivo, 2 h
Muscle tissue [20] = assay: Drug uptake in ICR mouse muscle at 1.11 MBq, iv after 2 mins postinjection; assay type: ADME, organism-based; settings: in vivo
Muscle tissue [21] = assay: Drug uptake in ICR mouse muscle at 1.11 MBq, iv after 30 mins postinjection; assay type: ADME, organism-based; settings: in vivo, 0.5 h
Kidney [22] = assay: Drug uptake in ICR mouse kidney at 1.11 MBq, iv after 60 mins postinjection; assay type: ADME, organism-based; settings: in vivo, 1 h
Femur [23] = assay: Drug uptake in ICR mouse femur at 1.11 MBq, iv after 30 mins postinjection; assay type: ADME, organism-based; settings: in vivo, 0.5 h
Heart [24] = assay: Drug uptake in ICR mouse heart at 1.11 MBq, iv after 2 mins postinjection; assay type: ADME, organism-based; settings: in vivo
Kidney [25] = assay: Drug uptake in ICR mouse kidney at 1.11 MBq, iv after 120 mins postinjection; assay type: ADME, organism-based; settings: in vivo, 2 h
Brain [26] = assay: Ratio of drug uptake in mouse brain after 2 mins to 30 mins; assay type: ADME, tissue-based; settings: in vivo
Heart [27] = assay: Drug uptake in ICR mouse heart at 1.11 MBq, iv after 30 mins postinjection; assay type: ADME, organism-based; settings: in vivo, 0.5 h
Kidney [28] = assay: Drug uptake in ICR mouse kidney at 1.11 MBq, iv after 2 mins postinjection; assay type: ADME, organism-based; settings: in vivo
Lung [29] = assay: Drug uptake in ICR mouse lung at 1.11 MBq, iv after 120 mins postinjection; assay type: ADME, organism-based; settings: in vivo, 2 h
Brain [30] = assay: Drug uptake in ICR mouse brain at 1.11 MBq, iv after 60 mins postinjection; assay type: ADME, organism-based; settings: in vivo, 1 h
Blood [31] = assay: Drug uptake in ICR mouse blood at 1.11 MBq, iv after 30 mins postinjection; assay type: ADME, organism-based; settings: in vivo, 0.5 h
Blood [32] = assay: Drug uptake in ICR mouse blood at 1.11 MBq, iv after 120 mins postinjection; assay type: ADME, organism-based; settings: in vivo, 2 h
Lung [33] = assay: Drug uptake in ICR mouse lung at 1.11 MBq, iv after 2 mins postinjection; assay type: ADME, organism-based; settings: in vivo
Brain [34] = assay: Ratio of drug uptake in mouse brain after 2 mins to 60 mins; assay type: ADME, tissue-based; settings: in vivo
Muscle tissue [35] = assay: Drug uptake in ICR mouse muscle at 1.11 MBq, iv after 60 mins postinjection; assay type: ADME, organism-based; settings: in vivo, 1 h
Spleen [36] = assay: Drug uptake in ICR mouse spleen at 1.11 MBq, iv after 30 mins postinjection; assay type: ADME, organism-based; settings: in vivo, 0.5 h
Muscle tissue [37] = assay: Drug uptake in ICR mouse muscle at 1.11 MBq, iv after 120 mins postinjection; assay type: ADME, organism-based; settings: in vivo, 2 h
Brain [38] = assay: Drug uptake in ICR mouse brain at 1.11 MBq, iv after 30 mins postinjection; assay type: ADME, organism-based; settings: in vivo, 0.5 h
Brain [39] = assay: Drug uptake in ICR mouse brain at 1.11 MBq, iv after 2 mins postinjection; assay type: ADME, organism-based; settings: in vivo
Spleen [40] = assay: Drug uptake in ICR mouse spleen at 1.11 MBq, iv after 60 mins postinjection; assay type: ADME, organism-based; settings: in vivo, 1 h
Liver [41] = assay: Drug uptake in ICR mouse liver at 1.11 MBq, iv after 2 mins postinjection; assay type: ADME, organism-based; settings: in vivo
Femur [42] = assay: Drug uptake in ICR mouse femur at 1.11 MBq, iv after 2 mins postinjection; assay type: ADME, organism-based; settings: in vivo
Brain [43] = assay: Drug uptake in mouse brain after 2 mins; assay type: ADME, tissue-based; settings: in vivo
[44] = Partition coefficient, log P of the compound; assay type: physicochemical; settings: octanol/water
Cynomolgus monkey [45] = assay: Drug uptake in cynomolgus monkey brain after 1.5 mins; assay type: ADME, organism-based, Macaca fascicularis; settings: in vivo, 0.025 h
Cynomolgus monkey [46] = assay: Drug uptake in cynomolgus monkey brain after 55 mins; assay type: ADME, organism-based, Macaca fascicularis; settings: in vivo

Compound: CN(C)c1ccc(-c2nc3ccc([125I])cc3s2)cc1
- Ki [1]: 1.9 nM

Compound: CNc1ccc(-c2cn3c(n2)sc2cc(OC)ccc23)cc1
- Ki [1]: 3.5 nM

Compound: COc1ccc2c(c1)sc1nc(-c3ccc(N[11CH3])cc3)cn12
- Ratio (Brain [2]): 9.1

Compound: COc1cc(/C=C/c2ccc(F)cc2)cc(OC)c1
- Ki [3]: 4.95 nM

Compound: [11CH3]Nc1ccc(-c2nc3ccc(O)cc3s2)cn1
- Ki [1]: 19.7 nM

Compound: CNc1ccc(-c2cn3c(n2)sc2cc(OCC[18F])ccc23)cc1
- Ratio (Brain [2]): 5.6

Compound: COc1cc(/C=C/c2ccc(OCCC[18F])cc2)cc(OC)c1
- Drug uptake (Liver [4]): 2.47 % ID/g
- Drug uptake (Lung [5]): 1.08 % ID/g
- Drug uptake (Liver [6]): 4.47 % ID/g
- Drug uptake (Heart [7]): 0.56 % ID/g
- Drug uptake (Femur [8]): 16.15 % ID/g
- Drug uptake (Femur [9]): 9.73 % ID/g
- Drug uptake (Brain [10]): 1 % ID/g
- Drug uptake (Liver [11]): 5.99 % ID/g
- Drug uptake (Lung [12]): 1.72 % ID/g
- Drug uptake (Kidney [13]): 2.86 % ID/g
- Drug uptake (Spleen [14]): 3.15 % ID/g
- Drug uptake (Blood [15]): 0.43 % ID/g
- logP [16]: 2.84
- Drug uptake (Blood [17]): 2.08 % ID/g
- Drug uptake (Heart [18]): 0.61 % ID/g
- Drug uptake (Spleen [19]): 0.97 % ID/g
- Drug uptake (Muscle tissue [20]): 3.67 % ID/g
- Drug uptake (Muscle tissue [21]): 1.27 % ID/g
- Drug uptake (Kidney [22]): 2.76 % ID/g
- Drug uptake (Femur [23]): 5.24 % ID/g
- Drug uptake (Heart [24]): 7.22 % ID/g
- Drug uptake (Kidney [25]): 1.65 % ID/g
- Ratio (Brain [26]): 1.6
- Drug uptake (Heart [27]): 1.35 % ID/g
- Drug uptake (Kidney [28]): 10.46 % ID/g
- Drug uptake (Lung [29]): 1.16 % ID/g
- Drug uptake (Brain [30]): 1.13 % ID/g
- Drug uptake (Blood [31]): 0.98 % ID/g
- Drug uptake (Blood [32]): 0.38 % ID/g
- Drug uptake (Lung [33]): 8.17 % ID/g
- Ratio (Brain [34]): 2.9
- Drug uptake (Muscle tissue [35]): 0.74 % ID/g
- Drug uptake (Spleen [36]): 1.23 % ID/g
- Drug uptake (Muscle tissue [37]): 1.07 % ID/g
- Drug uptake (Brain [38]): 2.09 % ID/g
- Drug uptake (Brain [39]): 3.26 % ID/g
- Drug uptake (Spleen [40]): 0.84 % ID/g
- Drug uptake (Liver [41]): 14.35 % ID/g
- Drug uptake (Femur [42]): 1.88 % ID/g

Compound: CN(C)c1ccc(/C=C/c2cn(CC[18F])nn2)cc1
- Drug uptake (Liver [4]): 3.47 % ID/g
- Drug uptake (Lung [5]): 1.04 % ID/g
- Drug uptake (Liver [6]): 3.47 % ID/g
- Drug uptake (Heart [7]): 0.81 % ID/g
- Drug uptake (Femur [8]): 1.54 % ID/g
- Drug uptake (Femur [9]): 0.94 % ID/g
- Drug uptake (Brain [10]): 0.48 % ID/g
- Drug uptake (Liver [11]): 7.59 % ID/g
- Drug uptake (Lung [12]): 1.75 % ID/g
- Drug uptake (Kidney [13]): 7.32 % ID/g
- Drug uptake (Spleen [14]): 2.36 % ID/g
- Drug uptake (Blood [15]): 1.27 % ID/g
- logP [16]: 1.74
- Drug uptake (Blood [17]): 3.35 % ID/g
- Drug uptake (Heart [18]): 0.71 % ID/g
- Drug uptake (Spleen [19]): 0.49 % ID/g
- Drug uptake (Muscle tissue [20]): 2.44 % ID/g
- Drug uptake (Muscle tissue [21]): 0.74 % ID/g
- Drug uptake (Kidney [22]): 3.7 % ID/g
- Drug uptake (Femur [23]): 0.7 % ID/g
- Drug uptake (Heart [24]): 3.8 % ID/g
- Drug uptake (Kidney [25]): 1.86 % ID/g
- Ratio (Brain [26]): 7.9
- Drug uptake (Heart [27]): 1.32 % ID/g
- Drug uptake (Kidney [28]): 7.32 % ID/g
- Drug uptake (Lung [29]): 0.76 % ID/g
- Drug uptake (Brain [30]): 0.52 % ID/g
- Drug uptake (Blood [31]): 2.16 % ID/g
- Drug uptake (Blood [32]): 0.98 % ID/g
- Drug uptake (Lung [33]): 5.73 % ID/g
- Ratio (Brain [34]): 10.3
- Drug uptake (Muscle tissue [35]): 0.51 % ID/g
- Drug uptake (Spleen [36]): 0.85 % ID/g
- Drug uptake (Muscle tissue [37]): 0.4 % ID/g
- Drug uptake (Brain [38]): 0.68 % ID/g
- Drug uptake (Brain [39]): 5.38 % ID/g
- Drug uptake (Spleen [40]): 0.6 % ID/g
- Drug uptake (Liver [41]): 12.5 % ID/g
- Drug uptake (Femur [42]): 1.49 % ID/g

Compound: COc1cc(/C=C/c2ccc(OCCF)cc2)cc(OC)c1
- Ki [3]: 0.74 nM

Compound: COc1cc(/C=C/c2ccc(OCCCF)cc2)cc(OC)c1
- Ki [3]: 0.49 nM

Compound: CN(C)c1ccc(-c2nc3ccc([125I])cc3o2)cc1
- Ki [1]: 0.8 nM

Compound: CN(C)c1ccc(/C=C/c2cn(CCF)nn2)cc1
- Ki [3]: 12.8 nM

Compound: Oc1cc(O)cc(/C=C/c2ccc(F)cc2)c1
- Ki [3]: 39.7 nM

Compound: CN(C)c1ccc(-c2cn3cc([125I])ccc3n2)cc1
- Drug uptake (Brain [43]): 2.88 %ID

Compound: CNc1ccc(/C=C/c2ccc(OCCOCCOCC[18F])cc2)cc1 [FLORBETABEN F18]
- Ki [1]: 2.22 nM
- Ratio (Brain [26]): 4.89
- Drug uptake (Brain [43]): 7.77 % ID/g
- logP [44]: 2.41

Compound: CNc1ccc(/C=C/c2ccc(OCCOCCOCC[18F])nc2)cc1 [FLORBETAPIR F 18]
- Ki [1]: 2.87 nM
- Ratio (Brain [34]): 3.9
- logP [44]: 2.41

Compound: CNc1ccc(-c2cc3cc(O)ccc3o2)c([18F])n1 [FLUTAFURANOL F 18]
- Drug uptake (Cynomolgus monkey [45]): 5.2 %ID
- Drug uptake (Cynomolgus monkey [46]): 0.5 %ID

Compound: CNc1ccc(-c2nc3ccc(O)cc3s2)cc1[18F] [FLUTEMETAMOL F 18]
- Ki [1]: 0.74 nM

From ChEMBL document CHEMBL2157886, “Synthesis and evaluation of ¹⁸F-labeled styryltriazole and resveratrol derivatives for β-amyloid plaque imaging” (J Med Chem, 2012)
